Consider 2 molecules from ChEMBL document CHEMBL1152143, “Potent benzimidazolone-based CGRP receptor antagonists” (Bioorg Med Chem Lett, 2008).

Common to all, as to details: Macaca mulatta
Assay [1] deals with Rhesus monkey. As to the kind of experiment: Inhibition of CGRP-induced vasodilation in rhesus monkey at plasma concentration of 2 uM. Format: functional.
In assay [2] the test system is Rhesus monkey. The assay can be described thus: Inhibition of CGRP-induced vasodilation in rhesus monkey.
Assay [3] has as its system Rhesus monkey. As to the kind of experiment: Inhibition of CGRP-induced vasodilation in rhesus monkey at plasma concentration of 10 uM. Format: functional.

In the assay with Rhesus monkey [1], `Cc1cc(C)c2c(c1)n(CC(=O)Nc1ccc3c(c1)C[C@]1(C3)C(=O)NC(=O)N1C)c(=O)n2CC(=O)N(C)C` had an inhibition at 2 µM of 100%. The molecule further displayed an EC50 in the assay with Rhesus monkey [2] of 0.3 µM.

Regarding `Cc1cc(C)c2c(c1)n(CC(=O)Nc1ccc3c(c1)C[C@]1(C3)C(=O)NC(=O)N1C)c(=O)n2C`, testing at 10 µM in the assay on Rhesus monkey [3] gave an inhibition of 50%. The molecule also displayed an EC50 in the assay on Rhesus monkey [2] of 10 µM.
